Where a name gives a salt, the structure may show the parent alone. Read-outs that look alike come from different tables or passages of the source.
Assays:
[1] = test system: E. coli S30 extract (bacterial protein synthesis); assay: E. coli S30 extract coupled transcription-translation luciferase assay (inhibition of bacterial protein synthesis); type: biochemical; conditions: read-out: S30 IC50 (μM/% inhib.)
In short: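 Cell-free coupled transcription-translation in E. coli S30 circular-DNA extract, with pBESTluc plasmid as template and complete amino acid mix. Eight 2-fold compound dilutions were incubated with the extract 1 h at 37 °C, chilled, then luciferase luminescence was read. % inhibition was taken relative to no-inhibitor wells; no-DNA wells gave background.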

[2] = biological target: Rabbit Reticulocyte Lysate (eukaryotic protein synthesis); assay: Rabbit reticulocyte lysate luciferase assay (inhibition of eukaryotic protein synthesis); type: biochemical; conditions: read-out: Rabbit reticulocyte IC50 (μM/% inhib.)
In short: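 Nuclease-treated rabbit reticulocyte lysate translating luciferase control RNA, with complete amino acids, was incubated at 30° C. for 90 minutes with 2-fold serial compound dilutions. Luminescence was measured after adding luciferase reagent. % inhibition was relative to water controls, with no-RNA wells as background.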

E. faecalis (Ef) = assay: Broth microdilution minimum inhibitory concentration (MIC); type: cell-based; conditions: Enterococcus faecalis, read-out: Ef + bicarb MIC
In short: (§1)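 CLSI broth microdilution (M07-A9, slightly modified) in CAMHB, optionally with 6.25 or 25 mM sodium bicarbonate or 0–50% heat-inactivated human serum. Two-fold serial dilutions (8 concentrations, triplicate) were inoculated at 5×10^4 CFU/well from 0.5 McFarland cultures grown at 35±2 °C.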

A. baumannii (Ab) = assay: as above; type: cell-based; conditions: Acinetobacter baumannii, read-out: Ab + bicarb MIC
In short: as §1

S. aureus (Sa) = assay: as above; type: cell-based; conditions: Staphylococcus aureus, read-out: Sa + bicarb MIC
In short: as §1

P. aeruginosa (Pa) = assay: as above; type: cell-based; conditions: Pseudomonas aeruginosa, read-out: Pa MIC + bicarb
In short: as §1

E. coli (Ec) = assay: as above; type: cell-based; conditions: Escherichia coli, read-out: E. coli + bicarb MIC
In short: as §1

[3] = class by IC50 or % inhibition @ 1 μM

Row | Structure (SMILES) | IC50 [1, 3] | IC50 [2, 3] | MIC (E. faecalis (Ef)) | MIC (A. baumannii (Ab)) | MIC (S. aureus (Sa)) | MIC (P. aeruginosa (Pa)) | MIC (E. coli (Ec)) | MIC (E. faecalis (Ef); E. faecalis, growth medium with sodium bicarbonate) | MIC (A. baumannii (Ab); A. baumannii, growth medium with sodium bicarbonate) | MIC (S. aureus (Sa); S. aureus, growth medium with sodium bicarbonate) | MIC (P. aeruginosa (Pa); P. aeruginosa, growth medium with sodium bicarbonate) | MIC (E. coli (Ec); E. coli, growth medium with sodium bicarbonate) | IC50 ([1]; % inhibition @ 1 μM) | IC50 ([2]; % inhibition @ 1 μM)
1 | CC(C)(N)C(=O)N1CCN(C(=O)Nc2ccn(-c3ccc(CN[C@H]4CC[C@H](N)CC4)c(F)c3)c(=O)n2)CC1 [Compound 330, 4-(2-Amino-2-methylpropanoyl)-N-(1-(4-(((trans-4-aminocyclohexyl)amino)methyl)-3-fluorophenyl)-2-oxo-1,2-dihydropyrimidin-4-yl)piperazine-1-carboxamide hydrochloride salt] | < 0.5 µM | > 1 µM | > 32 µg/mL | > 32 µg/mL | 8 to 32 µg/mL | > 32 µg/mL | < 8 µg/mL |  |  |  |  |  |  | 
2 | CC(C)(N)C(=O)N1CCN(C(=O)Nc2ccn(-c3ccc(CN(CC4CC4)C4CCC(N)CC4)c(OC(F)(F)F)c3)c(=O)n2)CC1 (stereo not shown) [Compound 331, hydrochloride salt] | < 0.5 µM | > 1 µM | 8 to 32 µg/mL | > 32 µg/mL | 8 to 32 µg/mL | > 32 µg/mL | < 8 µg/mL |  |  |  |  |  |  | 
3 | CC(C)(N)C(=O)N1CCN(C(=O)Nc2ccn(-c3ccc(CN[C@H]4CC[C@H](N)CC4)c(OC(F)(F)F)c3)c(=O)n2)CC1 [Compound 332, hydrochloride salt] | < 0.5 µM | > 1 µM | 8 to 32 µg/mL | > 32 µg/mL | 8 to 32 µg/mL | > 32 µg/mL | < 8 µg/mL |  |  |  |  |  |  | 
4 | CC(C)(N)C(=O)N1CCN(C(=O)Nc2ccn(-c3ccc(CN4CCCC(N)CC4)c(F)c3)c(=O)n2)CC1 (stereo not shown) [Compound 334, hydrochloride salt] | < 0.5 µM | > 1 µM | > 32 µg/mL | > 32 µg/mL | 8 to 32 µg/mL | > 32 µg/mL | < 8 µg/mL |  |  |  |  |  |  | 
5 | CC1C[C@@H](NCc2ccc(-n3ccc(NC(=O)N4CCN(C(=O)C(C)(C)N)CC4)nc3=O)cc2)CC[C@@H]1N (stereo partly shown) [Compound 335, hydrochloride salt] | < 0.5 µM | > 1 µM | > 32 µg/mL | > 32 µg/mL | < 8 µg/mL | > 32 µg/mL | < 8 µg/mL |  |  |  |  |  |  | 
6 | CC1C[C@@H](N(C)Cc2ccc(-n3ccc(NC(=O)N4CCN(C(=O)C(C)(C)N)CC4)nc3=O)cc2)CC[C@@H]1N (stereo partly shown) [Compound 337] | < 0.5 µM | > 1 µM |  |  |  |  |  | 8 to 32 µg/mL | > 32 µg/mL | < 8 µg/mL | > 32 µg/mL | < 8 µg/mL |  | 
7 | CCN(Cc1ccc(-n2ccc(NC(=O)N3CCN(C(=O)C(C)(C)N)CC3)nc2=O)cc1)[C@H]1CC[C@H](N)C(C)C1 (stereo partly shown) [Compound 338, hydrochloride salt] | < 0.5 µM | > 1 µM | 8 to 32 µg/mL | > 32 µg/mL | < 8 µg/mL | > 32 µg/mL | < 8 µg/mL |  |  |  |  |  |  | 
8 | CO[C@H]1C[C@@H](NCc2ccc(-n3ccc(NC(=O)N4CCN(C(=O)C(C)(C)N)CC4)nc3=O)cc2)CC[C@@H]1N [Compound 339, hydrochloride salt] | < 0.5 µM | > 1 µM | > 32 µg/mL | > 32 µg/mL | 8 to 32 µg/mL | > 32 µg/mL | < 8 µg/mL |  |  |  |  |  |  | 
9 | CO[C@H]1C[C@@H](N(C)Cc2ccc(-n3ccc(NC(=O)N4CCN(C(=O)C(C)(C)N)CC4)nc3=O)cc2)CC[C@@H]1N [Compound 340, hydrochloride salt] | 0.5 to 1 µM | > 1 µM | > 32 µg/mL | > 32 µg/mL | 8 to 32 µg/mL | > 32 µg/mL | < 8 µg/mL |  |  |  |  |  |  | 
10 | CCN(Cc1ccc(-n2ccc(NC(=O)N3CCN(C(=O)C(C)(C)N)CC3)nc2=O)cc1)[C@H]1CC[C@H](N)[C@@H](OC)C1 [Compound 341, hydrochloride salt] | 0.5 to 1 µM | > 1 µM | > 32 µg/mL | > 32 µg/mL | 8 to 32 µg/mL | > 32 µg/mL | 8 to 32 µg/mL |  |  |  |  |  |  | 
11 | CC(C)(N)C(=O)N1CCN(C(=O)Nc2ccn(-c3ccc(CNC4CC(N)CC(O)C4)cc3)c(=O)n2)CC1 (stereo not shown) [Compound 342, hydrochloride salt] | < 0.5 µM | > 1 µM | > 32 µg/mL | > 32 µg/mL | > 32 µg/mL | > 32 µg/mL | 8 to 32 µg/mL |  |  |  |  |  |  | 
12 | CN(Cc1ccc(-n2ccc(NC(=O)N3CCN(C(=O)C(C)(C)N)CC3)nc2=O)cc1)C1CC(N)CC(O)C1 (stereo not shown) [Compound 343, hydrochloride salt] | 0.5 to 1 µM | > 1 µM | > 32 µg/mL | > 32 µg/mL | > 32 µg/mL | > 32 µg/mL | 8 to 32 µg/mL |  |  |  |  |  |  | 
13 | CC(C)(N)C(=O)N1CCN(C(=O)Nc2ccn(-c3ccc(CN4CC[C@H](N)[C@@H](F)C4)cc3)c(=O)n2)CC1 [Compound 344, hydrochloride salt] | > 1 µM | > 1 µM | > 32 µg/mL | > 32 µg/mL | > 32 µg/mL | > 32 µg/mL | > 32 µg/mL |  |  |  |  |  |  | 
14 | CC(C)(N)C(=O)N1CCN(C(=O)Nc2ccn(-c3ccc(CCNCC4CNC4)cc3)c(=O)n2)CC1 [Compound 345, hydrochloride salt] | 0.5 to 1 µM | > 1 µM | > 32 µg/mL | > 32 µg/mL | > 32 µg/mL | > 32 µg/mL | > 32 µg/mL |  |  |  |  |  |  | 
15 | CC(Cc1ccc(-n2ccc(NC(=O)N3CCN(C(=O)C(C)(C)N)CC3)nc2=O)cc1)N1CC(CCN)C1 (stereo not shown) [Compound 347, hydrochloride salt] | 0.5 to 1 µM | > 1 µM | > 32 µg/mL | > 32 µg/mL | 8 to 32 µg/mL | > 32 µg/mL | < 8 µg/mL |  |  |  |  |  |  | 
16 | CC(C)(N)C(=O)N1CCN(C(=O)Nc2ccn(-c3ccc(CN(C4CC4)[C@H]4CC[C@H](N)CC4)cc3)c(=O)n2)CC1 [Compound 348, hydrochloride salt] |  |  | > 32 µg/mL | > 32 µg/mL | 8 to 32 µg/mL | > 32 µg/mL | < 8 µg/mL |  |  |  |  |  | < 0.5 µM | > 1 µM
17 | CC(C)(N)C(=O)N1CCN(C(=O)Nc2ccn(-c3ccc(C4CO[C@@H](CN)CN4)cc3)c(=O)n2)CC1 (stereo partly shown) [Compound 352, hydrochloride salt] |  |  | > 32 µg/mL | > 32 µg/mL | > 32 µg/mL | > 32 µg/mL | 8 to 32 µg/mL |  |  |  |  |  | < 0.5 µM | > 1 µM
18 | CC(C)(N)C(=O)N1CCN(C(=O)Nc2ccn(-c3cc(F)c(CN[C@H]4CC[C@H](N)CC4)c(F)c3)c(=O)n2)CC1 [Compound 353, hydrochloride salt] |  |  | > 32 µg/mL | > 32 µg/mL | 8 to 32 µg/mL | > 32 µg/mL | < 8 µg/mL |  |  |  |  |  | < 0.5 µM | > 1 µM
19 | CCN(Cc1ccc(-n2ccc(NC(=O)N3CCN(C(=O)C(C)(C)N)CC3)nc2=O)cc1F)[C@H]1CC[C@H](N)CC1 [Compound 355] |  |  | < 8 µg/mL | > 32 µg/mL | < 8 µg/mL | > 32 µg/mL | < 8 µg/mL |  |  |  |  |  | < 0.5 µM | > 1 µM
